Measured values reported in the supplement of paper PMC13380429.

What was measured:
Conditions in all cases: 72 h
Caco-2 [1] = test: cell viability relative to DMSO; higher = less toxic
Calu-3 [2] = test: as above
HepG2 [3] = test: as above
U2OS [4] = test: as above
Vero E6 [5] = test: as above
Caco-2 [6] = test: relative viability EC50 (midpoint between 100% and the lowest measured viability); higher = less toxic
Calu-3 [7] = test: as above
HepG2 [8] = test: as above
U2OS [9] = test: as above
Vero E6 [10] = test: as above
Caco-2 [11] = test: drug sensitivity score (DSS) for viability; higher = more toxic; extreme values may be limits of the assay
Calu-3 [12] = test: as above
HepG2 [13] = test: as above
U2OS [14] = test: as above
Vero E6 [15] = test: as above

| SMILES | cell viability (Caco-2 [1]; 1 nM) | cell viability (Caco-2 [1]; 10 nM) | cell viability (Caco-2 [1]; 100 nM) | cell viability (Caco-2 [1]; 1000 nM) | cell viability (Caco-2 [1]; 10000 nM) | cell viability (Calu-3 [2]; 1 nM) | cell viability (Calu-3 [2]; 10 nM) | cell viability (Calu-3 [2]; 100 nM) | cell viability (Calu-3 [2]; 1000 nM) | cell viability (Calu-3 [2]; 10000 nM) | cell viability (HepG2 [3]; 1 nM) | cell viability (HepG2 [3]; 10 nM) | cell viability (HepG2 [3]; 100 nM) | cell viability (HepG2 [3]; 1000 nM) | cell viability (HepG2 [3]; 10000 nM) | cell viability (U2OS [4]; 1 nM) | cell viability (U2OS [4]; 10 nM) | cell viability (U2OS [4]; 100 nM) | cell viability (U2OS [4]; 1000 nM) | cell viability (U2OS [4]; 10000 nM) | cell viability (Vero E6 [5]; 1 nM) | cell viability (Vero E6 [5]; 10 nM) | cell viability (Vero E6 [5]; 100 nM) | cell viability (Vero E6 [5]; 1000 nM) | cell viability (Vero E6 [5]; 10000 nM) | relative viability EC50 (Caco-2 [6]) | relative viability EC50 (Calu-3 [7]) | relative viability EC50 (HepG2 [8]) | relative viability EC50 (U2OS [9]) | relative viability EC50 (Vero E6 [10]) | drug sensitivity score (Caco-2 [11]) | drug sensitivity score (Calu-3 [12]) | drug sensitivity score (HepG2 [13]) | drug sensitivity score (U2OS [14]) | drug sensitivity score (Vero E6 [15]) |
| --- | --- | --- | --- | --- | --- | --- | --- | --- | --- | --- | --- | --- | --- | --- | --- | --- | --- | --- | --- | --- | --- | --- | --- | --- | --- | --- | --- | --- | --- | --- | --- | --- | --- | --- | --- |
| CCN1/C(=C/C(C)=O)Sc2ccc(OC)cc21 [TG-003] | 98.9% | 92.9% | 96.6% | 99.2% | 95.4% | 99.2% | 105% | 106% | 96.8% | 102% | 98% | 96.9% | 93% | 93.2% | 87.2% | 106% | 98.7% | 96.9% | 104% | 102% | 98.9% | 98.6% | 99.1% | 93.5% | 93.7% | > 10 µM | > 10 µM | > 10 µM | > 10 µM | > 10 µM | 0 | 0 | 0.1 | 0 | 0 |
| COc1ccc(NC(=O)c2ccc(C(=N)N(C)C)cc2)c(C(=O)Nc2ccc(Cl)cn2)c1 [betrixaban] | 101% | 97.5% | 97.5% | 97.6% | 91.5% | 90.9% | 101% | 105% | 95.1% | 95.5% | 98.6% | 100% | 105% | 96.3% | 100% | 96.2% | 100% | 95.6% | 100% | 97.8% | 98.7% | 99.1% | 97.3% | 96.4% | 93.9% | > 10 µM | > 10 µM | > 10 µM | > 10 µM | > 10 µM | 0 | 0 | 0 | 0 | 0 |
| OC[C@H]1O[C@@H](O[C@@H]2[C@H](O)[C@@H](O)[C@H](O[C@H]3[C@H](O)[C@@H](O)C(O)O[C@@H]3CO)O[C@@H]2CO)[C@H](O)[C@@H](O)[C@H]1O (stereo not given in full) [4-galactosyllactose] | 118% | 96.6% | 123% | 78.8% | 91.7% | 102% | 99.3% | 98.2% | 93.3% | 101% | 111% | 113% | 101% | 102% | 98.3% | 103% | 96.4% | 102% | 94.8% | 101% | 97.3% | 105% | 103% | 101% | 99.2% | > 10 µM | > 10 µM | > 10 µM | > 10 µM | > 10 µM | 2.5 | 0 | 0 | 0 | 0 |
| CCCN1CCC[C@@H]2Cc3nc(N)ncc3C[C@H]21 [quinelorane] | 101% | 92.9% | 98.6% | 85.7% | 104% | 102% | 99% | 93.2% | 103% | 105% | 95.9% | 94.1% | 97.6% | 91.8% | 96.4% | 103% | 105% | 102% | 97.1% | 98.5% | 102% | 99.6% | 101% | 93.2% | 99% | > 10 µM | > 10 µM | > 10 µM | > 10 µM | > 10 µM | 0 | 0 | 0 | 0 | 0 |
| CC1=NN=C(c2ccc(N)cc2)c2cc3c(cc2C1)OCO3 | 95.7% | 100% | 107% | 102% | 81% | 107% | 88.2% | 103% | 87.6% | 95.1% | 109% | 93.2% | 104% | 97.9% | 106% | 93.3% | 93.9% | 99.3% | 96.8% | 94% | 94.5% | 102% | 98.4% | 104% | 100% | > 10 µM | > 10 µM | > 10 µM | > 10 µM | > 10 µM | 0.4 | 0 | 0 | 0 | 0 |
| COc1cc(N)c(Cl)cc1C(=O)NC1CN2CCC1CC2 (stereo not given) [zacopride] | 101% | 97.6% | 97.6% | 95.7% | 110% | 96.9% | 100% | 97% | 85% | 95.3% | 107% | 99.5% | 102% | 100% | 109% | 92.5% | 96.3% | 96.7% | 98.3% | 92.2% | 98.9% | 92.8% | 97.9% | 97.4% | 106% | > 10 µM | > 10 µM | > 10 µM | > 10 µM | > 10 µM | 0 | 0 | 0 | 0 | 0 |
| O=C(O)CCc1cc(C(=O)c2ccc(OC3CCCC3)cc2O)ccc1OCc1ccc2c(O)noc2c1 [T-5224] | 106% | 99.2% | 101% | 93.6% | 94% | 97.3% | 106% | 92.3% | 93.9% | 100% | 97.9% | 93% | 105% | 102% | 96.4% | 97.6% | 99.2% | 95.9% | 99.9% | 96.4% | 93.9% | 101% | 97.2% | 102% | 94.9% | > 10 µM | > 10 µM | > 10 µM | > 10 µM | > 10 µM | 0 | 0 | 0 | 0 | 0 |
| CCOC(=O)[C@@H](C)Oc1ccc(Oc2nc3ccc(Cl)cc3o2)cc1 [fenoxaprop-p-ethyl] | 102% | 100% | 103% | 101% | 97.2% | 105% | 99% | 113% | 110% | 112% | 97.9% | 102% | 103% | 101% | 108% | 101% | 97.9% | 97.3% | 101% | 99.8% | 96.8% | 92.2% | 93.8% | 101% | 115% | > 10 µM | > 10 µM | > 10 µM | > 10 µM | > 10 µM | 0 | 0 | 0 | 0 | 0 |
| CN1C(CSCC(F)(F)F)Nc2cc(Cl)c(S(N)(=O)=O)cc2S1(=O)=O (stereo not given) [polythiazide] | 88.1% | 90.5% | 95.2% | 94.9% | 93% | 95.7% | 98.5% | 107% | 101% | 109% | 93.7% | 110% | 99.6% | 103% | 106% | 98.4% | 97.5% | 104% | 96.2% | 100% | 91.7% | 98.8% | 86.6% | 96.8% | 108% | > 10 µM | > 10 µM | > 10 µM | > 10 µM | > 10 µM | 0 | 0 | 0 | 0 | 0 |
| Cc1coc2c1C(=O)C(=O)c1c-2ccc2c(C)cccc12 [tanshinone-I] | 93.1% | 97.4% | 104% | 90.7% | 86.2% | 93.8% | 91.7% | 104% | 110% | 100% | 91% | 104% | 89.4% | 111% | 105% | 97.8% | 97.8% | 103% | 93.9% | 95.2% | 91.9% | 94.9% | 90.7% | 96.5% | 104% | > 10 µM | > 10 µM | > 10 µM | > 10 µM | > 10 µM | 0.7 | 0 | 0 | 0 | 0 |
| C1CCC(/N=C(\NC23CC4CC(CC(C4)C2)C3)N2CCOCC2)CC1 | 101% | 91.7% | 102% | 96.7% | 101% | 106% | 90.2% | 103% | 89% | 100% | 96.1% | 108% | 91.7% | 113% | 108% | 96.4% | 94.8% | 102% | 98.6% | 89.5% | 88.3% | 96% | 90.6% | 98.9% | 104% | > 10 µM | > 10 µM | > 10 µM | > 10 µM | > 10 µM | 0 | 0 | 0 | 0 | 0 |
| NC(=O)c1ccc2[nH]ccc2c1 [SD-169] | 94.7% | 90.8% | 100% | 92.9% | 99.2% | 103% | 87.6% | 98.5% | 99.6% | 101% | 93.7% | 92.4% | 102% | 102% | 83.4% | 104% | 104% | 102% | 98.9% | 101% | 98.8% | 99.1% | 92.6% | 97.6% | 89.8% | > 10 µM | > 10 µM | > 10 µM | > 10 µM | > 10 µM | 0 | 0 | 0.3 | 0 | 0 |
| CCOc1nc2cccc(C(=O)O)c2n1Cc1ccc(-c2ccccc2-c2noc(=O)[nH]2)cc1 [azilsartan] | 103% | 91.4% | 91.9% | 103% | 95.7% | 94.2% | 98.2% | 96% | 93% | 91.5% | 93.5% | 103% | 102% | 108% | 102% | 102% | 93.6% | 99.5% | 93.3% | 97.5% | 99% | 102% | 98.1% | 103% | 94.3% | > 10 µM | > 10 µM | > 10 µM | > 10 µM | > 10 µM | 0 | 0 | 0 | 0 | 0 |
| COc1ccccc1C(=O)Nc1cc2c(cc1N1CCCC1)n(C)c(=O)n2C [PFI-4] | 104% | 99.8% | 92.7% | 89.1% | 77.6% | 93.7% | 104% | 94.7% | 106% | 98% | 92.7% | 93.1% | 94.1% | 96.5% | 91.5% | 101% | 101% | 97.6% | 99.4% | 92% | 99.2% | 102% | 96.2% | 92.2% | 89% | > 10 µM | > 10 µM | > 10 µM | > 10 µM | > 10 µM | 1.6 | 0 | 0 | 0 | 0 |
